Measurements as given in ChEMBL document CHEMBL3885861, “Open TG-GATES”.

Organism: Rattus norvegicus
Assay: Open TG-GATES - Regimen: Single
Assay type: toxicity, organism-based, Sprague-Dawley
Design: regimen Single, gender Male, age 6 weeks
Details: in vivo, po, route gavage; for Bas / Eos / Fbg / Lym / Mono / RBC / Ret / WBC: tissue Blood; for KIDNEY_L / KIDNEY_R / KIDNEY_TOTAL: tissue Kidney
[1] = 60 mg/kg, 3 h, dose level Middle
[2] = 60 mg/kg, 3 h, tissue Plasma, dose level Middle
[3] = 60 mg/kg, 6 h, dose level Middle
[4] = 60 mg/kg, 6 h, tissue Plasma, dose level Middle
[5] = 60 mg/kg, 9 h, dose level Middle
[6] = 60 mg/kg, 9 h, tissue Plasma, dose level Middle
[7] = 60 mg/kg, 24 h, dose level Middle
[8] = 60 mg/kg, 24 h, tissue Plasma, dose level Middle
[9] = 200 mg/kg, 3 h, dose level High
[10] = 200 mg/kg, 3 h, tissue Plasma, dose level High
[11] = 200 mg/kg, 6 h, dose level High
[12] = 200 mg/kg, 6 h, tissue Plasma, dose level High
[13] = 200 mg/kg, 9 h, dose level High
[14] = 200 mg/kg, 9 h, tissue Plasma, dose level High
[15] = 200 mg/kg, 24 h, dose level High
[16] = 200 mg/kg, 24 h, tissue Plasma, dose level High

C=C[C@H]1C[N@@]2CC[C@H]1C[C@@H]2[C@@H](O)c1ccnc2ccc(OC)cc12 [QUINIDINE]
Bas [1]: 0%
Eos [1]: 0.4%
Fbg [1]: 295 mg/dL
Lym [1]: 73.2%
Mono [1]: 2.6%
RBC [1]: 588 x10_4/ul
Ret [1]: 7.6%
WBC [1]: 87.1 x10_2/uL
KIDNEY_L [1]: 1 g
KIDNEY_R [1]: 1 g
KIDNEY_TOTAL [1]: 2 g
ALP [2]: 1472.8 IU/L
CRE [2]: 0.2 mg/dL
DBIL [2]: 0.002 mg/dL
IP [2]: 9.1 mg/dL
K [2]: 4 meq/L
LDH [2]: 131.2 IU/L
Na [2]: 140.6 meq/L
PL [2]: 148.2 mg/dL
RALB [2]: 2.9 g/dL
TBIL [2]: 0.026 mg/dL
TG [2]: 56.2 mg/dL
TP [2]: 5.2 g/dL
gamma-GTP [2]: 2.2 IU/L
TERMINAL_BW [3]: 218.5 g
Bas [3]: 0%
Eos [3]: 0.8%
Fbg [3]: 301.2 mg/dL
Lym [3]: 79.8%
Mono [3]: 2.2%
RBC [3]: 623.4 x10_4/ul
Ret [3]: 6.6%
WBC [3]: 77.2 x10_2/uL
KIDNEY_L [3]: 1 g
KIDNEY_R [3]: 1 g
KIDNEY_TOTAL [3]: 2 g
ALP [4]: 1426.2 IU/L
CRE [4]: 0.2 mg/dL
DBIL [4]: 0.002 mg/dL
IP [4]: 9.1 mg/dL
K [4]: 4.3 meq/L
LDH [4]: 136.2 IU/L
Na [4]: 142.6 meq/L
PL [4]: 149.4 mg/dL
RALB [4]: 3 g/dL
TBIL [4]: 0.022 mg/dL
TG [4]: 83.2 mg/dL
TP [4]: 5.3 g/dL
gamma-GTP [4]: 1.4 IU/L
TERMINAL_BW [5]: 207.3 g
Bas [5]: 0%
Eos [5]: 0.8%
Fbg [5]: 300 mg/dL
Lym [5]: 77%
Mono [5]: 1.6%
RBC [5]: 622.8 x10_4/ul
Ret [5]: 6.8%
WBC [5]: 59.2 x10_2/uL
KIDNEY_L [5]: 1 g
KIDNEY_R [5]: 1 g
KIDNEY_TOTAL [5]: 2 g
ALP [6]: 1460.8 IU/L
CRE [6]: 0.2 mg/dL
DBIL [6]: 0.002 mg/dL
IP [6]: 9.6 mg/dL
K [6]: 4.4 meq/L
LDH [6]: 141.8 IU/L
Na [6]: 143.8 meq/L
PL [6]: 139.8 mg/dL
RALB [6]: 3 g/dL
TBIL [6]: 0.024 mg/dL
TG [6]: 74 mg/dL
TP [6]: 5.4 g/dL
gamma-GTP [6]: 1 IU/L
TERMINAL_BW [7]: 225.2 g
Bas [7]: 0%
Eos [7]: 0.8%
Fbg [7]: 337.8 mg/dL
Lym [7]: 72.4%
Mono [7]: 3.4%
RBC [7]: 650.2 x10_4/ul
Ret [7]: 6.9%
WBC [7]: 95.3 x10_2/uL
KIDNEY_L [7]: 1 g
KIDNEY_R [7]: 1 g
KIDNEY_TOTAL [7]: 2 g
ALP [8]: 1697 IU/L
CRE [8]: 0.1 mg/dL
DBIL [8]: 0 mg/dL
IP [8]: 8.1 mg/dL
K [8]: 4.1 meq/L
LDH [8]: 181.4 IU/L
Na [8]: 141 meq/L
RALB [8]: 3 g/dL
TBIL [8]: 0.014 mg/dL
TP [8]: 5.6 g/dL
gamma-GTP [8]: 1.4 IU/L
TERMINAL_BW [9]: 218.1 g
Bas [9]: 0%
Eos [9]: 0.8%
Fbg [9]: 267 mg/dL
Lym [9]: 76.2%
Mono [9]: 2.2%
RBC [9]: 571.6 x10_4/ul
Ret [9]: 6.9%
WBC [9]: 60.8 x10_2/uL
KIDNEY_L [9]: 1 g
KIDNEY_R [9]: 1 g
KIDNEY_TOTAL [9]: 2 g
ALP [10]: 1429.4 IU/L
CRE [10]: 0.2 mg/dL
DBIL [10]: 0.002 mg/dL
GLC [10]: 172 mg/dL
IP [10]: 9.1 mg/dL
K [10]: 4 meq/L
LDH [10]: 121 IU/L
Na [10]: 140.6 meq/L
PL [10]: 126.8 mg/dL
RALB [10]: 2.9 g/dL
TBIL [10]: 0.02 mg/dL
TC [10]: 66.2 mg/dL
TG [10]: 46.8 mg/dL
TP [10]: 5.1 g/dL
gamma-GTP [10]: 1.4 IU/L
TERMINAL_BW [11]: 221.5 g
Bas [11]: 0%
Eos [11]: 0.8%
Fbg [11]: 318.2 mg/dL
Lym [11]: 76.4%
Mono [11]: 2.2%
RBC [11]: 584.8 x10_4/ul
Ret [11]: 7.5%
WBC [11]: 76 x10_2/uL
KIDNEY_L [11]: 1 g
KIDNEY_R [11]: 1 g
KIDNEY_TOTAL [11]: 2 g
ALP [12]: 1392.8 IU/L
CRE [12]: 0.2 mg/dL
DBIL [12]: 0.004 mg/dL
IP [12]: 8.7 mg/dL
K [12]: 4.3 meq/L
LDH [12]: 181.8 IU/L
Na [12]: 142 meq/L
RALB [12]: 3 g/dL
TBIL [12]: 0.024 mg/dL
TC [12]: 86.4 mg/dL
TG [12]: 55.4 mg/dL
TP [12]: 5.4 g/dL
gamma-GTP [12]: 1.2 IU/L
TERMINAL_BW [13]: 218.2 g
Bas [13]: 0%
Eos [13]: 0.8%
Fbg [13]: 309.8 mg/dL
Lym [13]: 74%
Mono [13]: 1.6%
RBC [13]: 591 x10_4/ul
Ret [13]: 6.5%
WBC [13]: 63.2 x10_2/uL
KIDNEY_L [13]: 1 g
KIDNEY_R [13]: 1 g
KIDNEY_TOTAL [13]: 2 g
ALP [14]: 1558.2 IU/L
CRE [14]: 0.1 mg/dL
DBIL [14]: 0.004 mg/dL
IP [14]: 8.9 mg/dL
K [14]: 4.4 meq/L
LDH [14]: 118.4 IU/L
Na [14]: 142.6 meq/L
PL [14]: 148.2 mg/dL
RALB [14]: 3 g/dL
TBIL [14]: 0.028 mg/dL
TG [14]: 71.6 mg/dL
TP [14]: 5.4 g/dL
gamma-GTP [14]: 1.2 IU/L
TERMINAL_BW [15]: 231.5 g
Bas [15]: 0%
Eos [15]: 0.8%
Fbg [15]: 319.6 mg/dL
Lym [15]: 74.8%
Mono [15]: 3%
RBC [15]: 633.6 x10_4/ul
Ret [15]: 7.1%
WBC [15]: 84.6 x10_2/uL
KIDNEY_L [15]: 1 g
KIDNEY_R [15]: 1.1 g
KIDNEY_TOTAL [15]: 2.1 g
ALP [16]: 1496.4 IU/L
CRE [16]: 0.1 mg/dL
DBIL [16]: 0.002 mg/dL
IP [16]: 9.1 mg/dL
K [16]: 4.1 meq/L
LDH [16]: 144.2 IU/L
Na [16]: 141 meq/L
PL [16]: 146.8 mg/dL
RALB [16]: 3 g/dL
TBIL [16]: 0.01 mg/dL
TP [16]: 5.6 g/dL
gamma-GTP [16]: 1.6 IU/L
